Holding throughout (assay type): cell-based
Common to all, as to parameters: key: D: There is no sterilization effect.; C: There is a sterilization effect in step (1) but no sterilization effect in step (2).; B: There is a sterilization effect up to step (2) but no sterilization effect in step (3).; A: There is a sterilization effect up to step (3)

The test system of assay [1] is Shigella dysenteriae serotype 2 KX-H214.
In assay [2] the test system is Staphylococcus aureus (209P). Briefly: Sterilization effect determination test (Fujimoto's modified method of the Kelsey-Sykes method). Conditions: Table 2; compositions of calcinated calcium and ethanol, water remainder; 20° C.; steps (1)-(3); listed as Ethanol 30 wt %.
For assay [3], the system named is Bacillus cereus Kyoto 1. Briefly: Comparison test of sterilization effects against various food poisoning microbes.
Assay [4] has as its system Escherichia coli (NIHJ). Briefly: Sterilization effect determination test (Fujimoto's modified method of the Kelsey-Sykes method). Conditions: Table 1; compositions of calcinated calcium and ethanol, water remainder; 20° C.; steps (1)-(3); listed as Ethanol 30 wt %.
The test system of assay [5] is Salmonella serotype Krefeld KX-S124. Briefly: Comparison test of sterilization effects against various food poisoning microbes.
Setting [6] is: Table 7, test microbe solution without yeast extract.
The mark [7] stands for this setting: Table 8, yeast extract 4 weight % blended in test microbe solution.

Like-named read-outs stand apart in the source and are kept apart here.

Turning to `CCO` [EtOH 30%, ethanol], the Sterilization effect result is given as “C” in assay [1] (setting [6]); “C” in assay [1] (setting [7]); “D” in assay [2]; “C” in assay [3] (setting [6]); “D” in assay [3] (setting [7]); “C” in assay [4]. Further, the Sterilization effect entry in assay [5] (setting [6]) and in assay [5] (setting [7]) was “C” throughout.
In the case of `[Na+].[O-]Cl` [S.H 150 ppm, sodium hypochlorite], the Sterilization effect result in assay [1] (setting [6]) is listed as “A”; in assay [1] (setting [7]) it was “C”; in assay [3] (setting [6]), “A”; in assay [3] (setting [7]), “D”; in assay [5] (setting [6]) it was “A”; in assay [5] (setting [7]), “D”.

These data come from patent publication US9060541B2, “Sterilizer for foods” (Kawakami Co., Ltd., priority 2009, dated 2015).
